Results as given in patent US11608323B2 (SYNGENTA LIMITED, priority 2013, dated 2023).

What was measured:
Format in all cases: in vivo
ABUTH [1] = experiment: Pre-emergence herbicidal activity, glasshouse pot test; details: rate 1000 g/Ha, evaluated after 13 days, scale 0-5
Outline: (§1)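 Damage was rated 13 days after treatment on a 0–5 scale (0 = no damage, 5 = total damage). Pots of seeds in standard soil were sprayed one day after sowing with an aqueous solution from an acetone/water (50:50), 0.5% Tween 20 formulation and kept at 24/16 °C day/night.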

AMARE [2] = experiment: as above; details: rate 1000 g/Ha, evaluated after 13 days, scale 0-5
Outline: as §1

SETFA [3] = experiment: as above; details: rate 1000 g/Ha, evaluated after 13 days, scale 0-5
Outline: as §1

ZEAMX [4] = experiment: as above; details: rate 1000 g/Ha, evaluated after 13 days, scale 0-5
Outline: as §1

ECHCG [5] = experiment: as above; details: rate 1000 g/Ha, evaluated after 13 days, scale 0-5
Outline: as §1

ABUTH [6] = experiment: Post-emergence herbicidal activity, glasshouse pot test; details: Abutilon theophrasti; application post-emergence; rate 1000 g/Ha; evaluated after 13 days
Outline: (§2)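 Damage was rated 0-5 (5 = total) 13 days after a post-emergence spray of acetone/water (50:50) plus 0.5% Tween 20 formulation. Plants were sprayed at 8 days' growth and kept at 24/16° C, 14 h light, 65% humidity, watered twice daily.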

AMARE [7] = experiment: as above; details: Amaranthus retroflexus; application post-emergence; rate 1000 g/Ha; evaluated after 13 days
Outline: as §2

SETFA [8] = experiment: as above; details: Setaria faberi; application post-emergence; rate 1000 g/Ha; evaluated after 13 days
Outline: as §2

ZEAMX [9] = experiment: as above; details: Zea mays; application post-emergence; rate 1000 g/Ha; evaluated after 13 days
Outline: as §2

ECHCG [10] = experiment: as above; details: Echinochloa crus-galli; application post-emergence; rate 1000 g/Ha; evaluated after 13 days
Outline: as §2

Compound | ABUTH damage score, application pre-emergence (ABUTH [1]) | AMARE damage score, application pre-emergence (AMARE [2]) | SETFA damage score, application pre-emergence (SETFA [3]) | ZEAMX damage score, application pre-emergence (ZEAMX [4]) | ECHCG damage score, application pre-emergence (ECHCG [5]) | Post-emergence herbicidal activity ABUTH (damage score 0-5) (ABUTH [6]) | Post-emergence herbicidal activity AMARE (damage score 0-5) (AMARE [7]) | Post-emergence herbicidal activity SETFA (damage score 0-5) (SETFA [8]) | Post-emergence herbicidal activity ZEAMX (damage score 0-5) (ZEAMX [9]) | Post-emergence herbicidal activity ECHCG (damage score 0-5) (ECHCG [10])
C#CCN1C(=O)N(c2cc(C(F)(F)F)ccn2)C(O)C1C (stereo not shown) [Compound A87] | 5 | 5 | 4 | 3 | 4 | 5 | 5 | 5 | 4 | 5
CCN1C(=O)N(c2cc(C(F)(F)F)ccn2)C(O)C1C (stereo not shown) [Compound A88] | 5 | 5 | 4 | 2 | 4 | 5 | 5 | 5 | 3 | 5
COC(C)(C)c1ccnc(N2C(=O)N(C)C(C)C2O)c1 (stereo not shown) [Compound A89] | 5 | 5 | 4 | 2 | 4 | 5 | 5 | 5 | 3 | 5
CON1C(=O)N(c2cc(C(F)(F)Cl)ccn2)C(O)[C@@H]1C (stereo partly shown) [Compound A90] | 3 | 5 | 4 | 2 | 4 | 5 | 5 | 5 | 5 | 5
CC1NC(=O)N(c2cc(C(F)(F)Cl)ccn2)C1O (stereo not shown) [Compound A91] | 5 | 5 | 4 | 2 | 4 | 5 | 5 | 4 | 3 | 5
CC1C(O)N(c2cc(Cl)ccn2)C(=O)N1C (stereo not shown) [Compound A92] | 5 | 5 | 4 | 3 | 5 | 5 | 5 | 5 | 4 | 5
CCN1CC(O)N(c2cc(C(F)(F)F)ccn2)C1=O (stereo not shown) [Compound A95] | 5 | 5 | 5 | 1 | 5 | 5 | 5 | 5 | 2 | 5
CCO[C@@H]1[C@@H](OC(=O)[C@](OC)(c2ccccc2)C(F)(F)F)N(c2cc(C(F)(F)F)ccn2)C(=O)N1C [Compound A102] | 5 | 5 | 3 | 1 | 4 | 5 | 5 | 1 | 1 | 2
CCO[C@H]1[C@H](OC(=O)[C@](OC)(c2ccccc2)C(F)(F)F)N(c2cc(C(F)(F)F)ccn2)C(=O)N1C [Compound A103] | 1 | 2 | 4 | 1 | 1 | 0 | 2 | 1 | 1 | 0
CON1C(=O)N(c2cc(C(F)(F)F)ccn2)C(NCc2ccccc2)[C@@H]1C (stereo partly shown) [Compound A104] | 4 | 5 | 5 | 3 | 5 | 5 | 5 | 5 | 5 | 5
COCc1cnc(N2C(=O)N(C)C(C)C2O)cc1C(F)(F)F (stereo not shown) [Compound A105] | 5 | 5 | 5 | 4 | 5 | 5 | 5 | 5 | 5 | 5
CC1C(O)N(c2cc(C(F)(F)F)ccn2)C(=O)N1C(F)F (stereo not shown) [Compound A106] | 5 | 5 | 3 | 2 | 4 | 5 | 5 | 4 | 1 | 4
C=CCN1C(=O)N(c2cc(C(F)(F)F)ccn2)C(O)C1C (stereo not shown) [Compound A107] | 5 | 5 | 4 | 2 | 5 | 5 | 5 | 5 | 3 | 5
